Assay results published in PubChem BioAssay AID330 (DTP/NCI, 2004).
“And” between values parts separate entries of the source, which are not always exact repeats. Equal values may be shown once. Toxic doses and inconclusive results are not listed. The calls were made as follows: active = survival T/C of 150% or more; inactive = T/C below 125% in these data.

Test system: P388 leukemia ip, CD2F1 mice, survival T/C
Test: NCI In Vivo Anticancer Drug Screen. Data for tumor model P388 Leukemia (intraperitoneal) in CD2F1 (CDF1) mice
Conditions: endpoint: median survival time, higher = longer survival
Method in brief: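 Mice carrying the transplanted tumor received test compound or vehicle. Survival was recorded in each group, and the value is the treated-group measurement divided by that of the vehicle-treated control group.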

[1] = dose: 25.0 mg/kg/injection, schedule: Q01DX005 (ip), vehicle: saline
[2] = dose: 50.0 mg/kg/injection, schedule: Q01DX005 (ip), vehicle: saline
[3] = dose: 60.0 mg/kg/injection, schedule: Q01DX005 (ip), vehicle: saline with Tween-80
[4] = dose: 120.0 mg/kg/injection, schedule: Q01DX005 (ip), vehicle: saline with Tween-80
[5] = dose: 240.0 mg/kg/injection, schedule: Q01DX005 (ip), vehicle: saline with Tween-80
[6] = dose: 50.0 mg/kg/injection, schedule: Q01DX009 (ip), vehicle: Klucel (hydroxypropylcellulose) (HPC)
[7] = dose: 100.0 mg/kg/injection, schedule: Q01DX009 (ip), vehicle: Klucel (hydroxypropylcellulose) (HPC)
[8] = dose: 200.0 mg/kg/injection, schedule: Q01DX009 (ip), vehicle: Klucel (hydroxypropylcellulose) (HPC)
[9] = dose: 50.0 mg/kg/injection, schedule: Q01DX005 (ip), vehicle: Klucel (hydroxypropylcellulose) (HPC)
[10] = dose: 50.0 mg/kg/injection, schedule: Q01DX009 (ip), vehicle: saline
[11] = dose: 100.0 mg/kg/injection, schedule: Q04DX003 (ip), vehicle: Klucel (hydroxypropylcellulose) (HPC)
[12] = dose: 200.0 mg/kg/injection, schedule: Q04DX003 (ip), vehicle: Klucel (hydroxypropylcellulose) (HPC)
[13] = dose: 400.0 mg/kg/injection, schedule: Q04DX003 (ip), vehicle: Klucel (hydroxypropylcellulose) (HPC)
[14] = dose: 100.0 mg/kg/injection, schedule: Q01DX005 (ip), vehicle: Klucel (hydroxypropylcellulose) (HPC)
[15] = dose: 200.0 mg/kg/injection, schedule: Q01DX005 (ip), vehicle: Klucel (hydroxypropylcellulose) (HPC)
[16] = dose: 100.0 mg/kg/injection, schedule: Q01DX001 (ip), vehicle: Klucel (hydroxypropylcellulose) (HPC)
[17] = dose: 200.0 mg/kg/injection, schedule: Q01DX001 (ip), vehicle: Klucel (hydroxypropylcellulose) (HPC)
[18] = dose: 400.0 mg/kg/injection, schedule: Q01DX001 (ip), vehicle: Klucel (hydroxypropylcellulose) (HPC)

Measured: T/C

CC[n+]1c(C)sc2ccccc21
inactive: [1] 91 % of control | [2] 94 % of control

Cc1ccc(NC(=O)Oc2ccc([N+](=O)[O-])cc2)cc1S(=O)(=O)F
inactive: [3] 113 % of control | [4] 104 % of control | [5] 95 % of control

O=[N+]([O-])c1ccc(Nc2ccc(Cl)cc2)c2nonc12
inactive: dose: 50.0 mg/kg/injection, schedule: Q01DX005 (ip), vehicle: saline with Tween-80 100 % of control | dose: 100.0 mg/kg/injection, schedule: Q01DX005 (ip), vehicle: saline with Tween-80 103 % of control | dose: 200.0 mg/kg/injection, schedule: Q01DX005 (ip), vehicle: saline with Tween-80 97 % of control

CCCCCCCC(=O)C(=O)c1ccc(O)c(C)c1O
inactive: [6] 109 % of control | [7] 102 % of control | [8] 106 % of control

CC1CCCC2COCN12 (stereo not drawn)
inactive: dose: 12.5 mg/kg/injection, schedule: Q01DX005 (ip), vehicle: saline 105 % of control and 98 % of control | [1] 105 % of control and 106 % of control | [2] 101 % of control and 116 % of control and 118 % of control | dose: 100.0 mg/kg/injection, schedule: Q01DX005 (ip), vehicle: saline 123 % of control and 96 % of control | dose: 200.0 mg/kg/injection, schedule: Q01DX005 (ip), vehicle: saline 115 % of control

COC(=O)/C(C1=C(Br)C(=O)C(C)=C(Br)C1=O)=C1/CCCN1
inactive: dose: 9.37 mg/kg/injection, schedule: Q01DX005 (ip), vehicle: Klucel (hydroxypropylcellulose) (HPC) 112 % of control | dose: 9.37 mg/kg/injection, schedule: Q04DX002 (ip), vehicle: Klucel (hydroxypropylcellulose) (HPC) 101 % of control | dose: 18.75 mg/kg/injection, schedule: Q01DX005 (ip), vehicle: Klucel (hydroxypropylcellulose) (HPC) 117 % of control | dose: 18.75 mg/kg/injection, schedule: Q04DX002 (ip), vehicle: Klucel (hydroxypropylcellulose) (HPC) 92 % of control | dose: 37.5 mg/kg/injection, schedule: Q01DX005 (ip), vehicle: Klucel (hydroxypropylcellulose) (HPC) 112 % of control | dose: 37.5 mg/kg/injection, schedule: Q04DX002 (ip), vehicle: Klucel (hydroxypropylcellulose) (HPC) 100 % of control | dose: 75.0 mg/kg/injection, schedule: Q04DX002 (ip), vehicle: Klucel (hydroxypropylcellulose) (HPC) 104 % of control

Nc1ccc(S(=O)(=O)n2c(=O)oc3cc(Cl)ccc32)cc1
inactive: dose: 12.5 mg/kg/injection, schedule: Q01DX005 (ip), vehicle: Klucel (hydroxypropylcellulose) (HPC) 100 % of control | dose: 25.0 mg/kg/injection, schedule: Q01DX005 (ip), vehicle: Klucel (hydroxypropylcellulose) (HPC) 93 % of control | [9] 102 % of control and 91 % of control

COc1ccc(OC)c(N2C(=O)C(Cl)=C(Cl)C2=O)c1
inactive: dose: 12.5 mg/kg/injection, schedule: Q01DX001 (ip), vehicle: saline with Tween-80 100 % of control | dose: 25.0 mg/kg/injection, schedule: Q01DX001 (ip), vehicle: saline with Tween-80 100 % of control | dose: 50.0 mg/kg/injection, schedule: Q01DX001 (ip), vehicle: saline with Tween-80 114 % of control

CCCCCC1OC1CC1OC1CCCCCCCC(=O)O (stereo not drawn)
inactive: [10] 99 % of control | dose: 100.0 mg/kg/injection, schedule: Q01DX009 (ip), vehicle: saline 90 % of control | dose: 200.0 mg/kg/injection, schedule: Q01DX009 (ip), vehicle: saline 86 % of control

O=C1CCC(c2nc3ccccc3[nH]2)N1Cc1csc(-c2ccccc2)n1 (stereo not drawn)
inactive: [3] 98 % of control | [4] 93 % of control | [5] 88 % of control

C/C(=C\C(=O)Nc1ncn[nH]1)Nc1ncn[nH]1
inactive: [6] 107 % of control | [7] 100 % of control | [8] 100 % of control | dose: 400.0 mg/kg/injection, schedule: Q01DX009 (ip), vehicle: Klucel (hydroxypropylcellulose) (HPC) 99 % of control

COC1=CC(C)C2CC3OC(O)CC4C(C)=C(OC)C(=O)C(C2(C)C1=O)C34C (stereo not drawn)
inactive: dose: 60.0 mg/kg/injection, schedule: Q01DX005 (ip), vehicle: Klucel (hydroxypropylcellulose) (HPC) 94 % of control | dose: 120.0 mg/kg/injection, schedule: Q01DX005 (ip), vehicle: Klucel (hydroxypropylcellulose) (HPC) 94 % of control | dose: 240.0 mg/kg/injection, schedule: Q01DX005 (ip), vehicle: Klucel (hydroxypropylcellulose) (HPC) 89 % of control

CCOC(=O)N1c2ccccc2N(C(=O)OCC)C1C#N
inactive: [3] 97 % of control | [4] 96 % of control | [5] 87 % of control

O=Cc1ccc([N+](=O)[O-])s1
inactive: [10] 120 % of control

COC(=O)C1=C(C(=O)OC)C2(C)C=CC1C1C(OC(C)=O)C(OC(C)=O)C12 (stereo not drawn)
inactive: [11] 105 % of control | [12] 108 % of control | [13] 107 % of control

O=P(O)(O)SP(=O)(O)O.[Co]
inactive: [6] 105 % of control | [7] 94 % of control

O=C(NC(Cc1c[nH]c2ccccc12)C(=O)NC(Cc1ccccc1)C(=O)O)OCc1ccccc1 (stereo not drawn)
inactive: [9] 103 % of control and 93 % of control | [14] 106 % of control | [15] 89 % of control

NC1=C(O)C(=O)C(/C=C/c2ccccc2)O1 (stereo not drawn)
inactive: [3] 90 % of control | [4] 90 % of control | [5] 87 % of control

O=[N+]([O-])c1ccc(O)c(CN2CCC(O)(c3ccccc3)CC2)c1
inactive: [11] 108 % of control | [12] 99 % of control | [13] 107 % of control

CCOC(=O)C1(NC(=O)Nc2ccccc2)CCCCC1
inactive: [9] 100 % of control | [14] 98 % of control | [15] 104 % of control

COc1c(OC(C)=O)c(OC(C)=O)cc2c1-c1ccc(OC)c(=O)cc1C(NC(C)=O)CC2 (stereo not drawn)
inactive: dose: 0.25 mg/kg/injection, schedule: Q01DX005 (ip), vehicle: saline 117 % of control | dose: 0.5 mg/kg/injection, schedule: Q01DX005 (ip), vehicle: saline 123 % of control
active: dose: 4.0 mg/kg/injection, schedule: Q01DX005 (ip), vehicle: saline 155 % of control | dose: 8.0 mg/kg/injection, schedule: Q01DX005 (ip), vehicle: saline 163 % of control | dose: 16.0 mg/kg/injection, schedule: Q01DX005 (ip), vehicle: saline 172 % of control

O=C1SC/C(=N\N=c2/scc(-c3ccccc3)n2-c2ccc(Br)cc2)N1Cc1ccccc1
inactive: dose: 100.0 mg/kg/injection, schedule: Q04DX002 (ip), vehicle: Klucel (hydroxypropylcellulose) (HPC) 86 % of control | dose: 200.0 mg/kg/injection, schedule: Q04DX002 (ip), vehicle: Klucel (hydroxypropylcellulose) (HPC) 91 % of control

CN(C)CC(CN(C)C)C(=O)/C=C/c1ccc(Cl)cc1Cl
inactive: dose: 7.5 mg/kg/injection, schedule: Q01DX005 (ip), vehicle: saline 104 % of control | dose: 15.0 mg/kg/injection, schedule: Q01DX005 (ip), vehicle: saline 97 % of control | dose: 30.0 mg/kg/injection, schedule: Q01DX005 (ip), vehicle: saline 100 % of control

CCOC(=O)C1(CN2C(=O)c3ccccc3C2=O)C(=O)Nc2ccccc21 (stereo not drawn)
inactive: [6] 87 % of control | [7] 87 % of control | [8] 87 % of control

CCCC1N[C@H](C(=O)O)CS1 (stereo partly drawn)
inactive: dose: 50.0 mg/kg/injection, schedule: Q01DX001 (ip), vehicle: Klucel (hydroxypropylcellulose) (HPC) 100 % of control | [16] 97 % of control | [17] 102 % of control | [18] 100 % of control

COC1=C(OC)C(C(O)CO)OC1=O (stereo not drawn)
inactive: dose: 25.0 mg/kg/injection, schedule: Q01DX009 (ip), vehicle: water 98 % of control | dose: 50.0 mg/kg/injection, schedule: Q01DX009 (ip), vehicle: water 98 % of control | dose: 100.0 mg/kg/injection, schedule: Q01DX009 (ip), vehicle: water 90 % of control | dose: 200.0 mg/kg/injection, schedule: Q01DX009 (ip), vehicle: water 99 % of control | dose: 400.0 mg/kg/injection, schedule: Q01DX009 (ip), vehicle: water 96 % of control

N#CC1CCCC(c2ccccc2)(C2CCCCC2)C1=O (stereo not drawn)
inactive: [16] 99 % of control | [17] 97 % of control | [18] 103 % of control
